{
  "source": "patent US20230365592A1",
  "about": "(Agios Pharmaceuticals, Inc., priority 2022, published 2023)",
  "data": [
    {"molecular_target": "T1, human PAH with the R408W mutation (Homo sapiens, UniProt P00439, R408W)", "T1 construct": "expressed in transfected cells", "T1 sequence (P00439 1-452 R408W)": "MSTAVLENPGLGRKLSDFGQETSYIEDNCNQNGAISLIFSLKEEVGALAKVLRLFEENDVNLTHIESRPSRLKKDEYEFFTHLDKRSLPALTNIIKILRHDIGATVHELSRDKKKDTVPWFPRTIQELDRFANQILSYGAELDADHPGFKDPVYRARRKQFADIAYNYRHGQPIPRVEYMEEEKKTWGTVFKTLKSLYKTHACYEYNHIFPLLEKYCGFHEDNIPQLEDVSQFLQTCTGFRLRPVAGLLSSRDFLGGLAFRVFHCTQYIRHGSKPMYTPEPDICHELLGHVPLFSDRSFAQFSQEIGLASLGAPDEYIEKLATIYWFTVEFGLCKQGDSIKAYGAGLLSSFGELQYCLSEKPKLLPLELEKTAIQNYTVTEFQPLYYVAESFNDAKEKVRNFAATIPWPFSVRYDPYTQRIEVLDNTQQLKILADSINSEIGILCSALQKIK", "assay": "Cell Based Phenylalanine Flux Assay;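 note: after compound treatment, cells received sepiapterin plus isotope-labelled Phenylalanine for 4 hours, then labelled Tyrosine in the medium was quantified, 10-point 2-fold dilution series run in duplicate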", "settings": "A375 cells expressing R408W PAH; 24 hrs with compound, then 20 µM sepiapterin and 800 µM 13C9,15N-Phenylalanine for 4 hours; 13C-Tyrosine by LC-MS; average where tested multiple times; read-out: AC50", "units": {"AC50": "µM"}, "values": [
      {"compound": "Cc1nc(C(=O)N2CCc3[nH]cnc3C2c2cc3cccc(C)n3n2)n(C)n1", "note": "(stereo not shown)", "AC50": "1 to 5"},
      {"compound": "c1cnc(-c2nnc(N3CCc4[nH]cnc4C3c3cc4c(C5CC5)cccn4n3)o2)nc1", "note": "(stereo not shown)", "AC50": "1 to 5"},
      {"compound": "Cn1ncnc1C(=O)N1CCc2[nH]cnc2C1c1cc2cccc(Cl)n2n1", "note": "(stereo not shown)", "AC50": "1 to 5"},
      {"compound": "Cc1nnc(N2CCc3[nH]cnc3C2c2cc3ccccn3n2)o1", "note": "(stereo not shown)", "AC50": "1 to 5"},
      {"compound": "CN(C)CCc1ccc2c(C(=O)N3CCc4[nH]cnc4C3c3cc4c(F)cccn4n3)cnn2c1", "note": "(stereo not shown)", "AC50": "1 to 5"},
      {"compound": "CC(C)(O)c1nnc(C(=O)N2CCc3[nH]cnc3C2c2cc3c(F)cccn3n2)o1", "note": "(stereo not shown)", "AC50": "1 to 5"},
      {"compound": "O=C(c1nnc(-c2cn[nH]c2)o1)N1CCc2[nH]cnc2[C@H]1c1cc2c(F)cccn2n1", "note": "(single isomer, unassigned)", "AC50": "1 to 5"},
      {"compound": "CC(F)(F)c1nnc(N2CCc3[nH]cnc3C2c2cc3cccc(C(F)(F)F)n3n2)o1", "note": "(stereo not shown)", "AC50": "1 to 5"}
    ]},
    {"molecular_target": "T1, human PAH with the R408W mutation", "assay": "Cell Based Phenylalanine Flux Assay", "settings": "A375 cells expressing human PAH R408W; 24 hrs compound incubation; 13C-Tyrosine by LC-MS; average where tested multiple times; read-out: AC50", "units": {"AC50": "µM"}, "values": [
      {"compound": "O=C(c1nc2ccccc2o1)N1CCc2[nH]cnc2[C@@H]1c1cc2c(C(F)(F)F)cccn2n1", "note": "[Example 2055, (R)-benzo[d]oxazol-2-yl(4-(4-(trifluoromethyl)pyrazolo[1,5-a]pyridin-2-yl)-1,4,6,7-tetrahydro-5H-imidazo[4,5-c]pyridin-5-yl)methanone]", "AC50": "> 5"},
      {"compound": "COc1cccn2nc([C@@H]3c4nc[nH]c4CCN3C(=O)c3nnc(-c4cnn(C(F)F)c4)o3)cc12", "note": "[Example 2446, (S)-(5-(1-(difluoromethyl)-1H-pyrazol-4-yl)-1,3,4-oxadiazol-2-yl)(4-(4-methoxypyrazolo[1,5-a]pyridin-2-yl)-6,7-dihydro-1H-imidazo[4,5-c]pyridin-5(4H)-yl)methanone]", "AC50": "1 to 5"},
      {"compound": "FC(F)(F)Oc1cccn2nc([C@@H]3c4nc[nH]c4CCN3c3nnc(C4CC4)o3)cc12", "note": "[Example 2314, (S)-2-cyclopropyl-5-(4-(4-(trifluoromethoxy)pyrazolo[1,5-a]pyridin-2-yl)-1,4,6,7-tetrahydro-5H-imidazo[4,5-c]pyridin-5-yl)-1,3,4-oxadiazole]", "AC50": "< 0.5"},
      {"compound": "Cc1cccn2nc([C@H]3c4nc[nH]c4CCN3C(=O)c3nnc(-c4cncnc4)o3)cc12", "note": "[Example 1973, (R)-(4-(4-methylpyrazolo[1,5-a]pyridin-2-yl)-1,4,6,7-tetrahydro-5H-imidazo[4,5-c]pyridin-5-yl)(5-(pyrimidin-5-yl)-1,3,4-oxadiazol-2-yl)methanone]", "AC50": "> 5"},
      {"compound": "O=C(c1oc(-c2ccccn2)nc1C1CC1)N1CCc2[nH]cnc2[C@H]1c1cc2c(F)cccn2n1", "note": "[Example 2118, (S)-(4-cyclopropyl-2-(pyridin-2-yl)oxazol-5-yl)(4-(4-fluoropyrazolo[1,5-a]pyridin-2-yl)-1,4,6,7-tetrahydro-5H-imidazo(4,5-c]pyridin-5-yl)methanone]", "AC50": "< 0.5"},
      {"compound": "CC(C)c1cccn2nc([C@H]3c4nc[nH]c4CCN3C(=O)c3nnc(-c4ccn(C)n4)o3)cc12", "note": "[Example 1950, (R)-(4-(4-isopropylpyrazolo[1,5-a]pyridin-2-yl)-1,4,6,7-tetrahydro-5H-imidazo[4,5-c]pyridin-5-yl)(5-(1-methyl-1H-pyrazol-3-yl)-1,3,4-oxadiazol-2-yl)methanone]", "AC50": "> 5"},
      {"compound": "CC(C)c1cccn2nc([C@@H]3c4nc[nH]c4CCN3c3ncc(C(F)(F)F)cn3)cc12", "note": "[Example 2185, (S)-4-(4-isopropylpyrazolo[1,5-a]pyridin-2-yl)-5-(5-(trifluoromethyl)pyrimidin-2-yl)-4,5,6,7-tetrahydro-1H-imidazo[4,5-c]pyridine]", "AC50": "< 0.5"}
    ]},
    {"molecular_target": "T1, human PAH with the R408W mutation", "assay": "Cell Based Phenylalanine Flux Assay", "settings": "A375 cells expressing human R408W PAH; 24 hrs compound incubation; 13C-Tyrosine by LC-MS; average where tested multiple times; read-out: AC50", "units": {"AC50": "µM"}, "values": [
      {"compound": "Cc1cccc(-c2nnc(C(=O)N3CCc4[nH]cnc4[C@@H]3c3cc4cccc(C(F)F)n4n3)o2)n1", "note": "[Example 1595, (R)-(4-(7-(difluoromethyl)pyrazolo[1,5-a]pyridin-2-yl)-6,7-dihydro-1H-imidazo[4,5-c]pyridin-5(4H)-yl)(5-(6-methylpyridin-2-yl)-1,3,4-oxadiazol-2-yl)methanone]", "AC50": "> 5"},
      {"compound": "Cc1nn(C)cc1-c1nnc(C(=O)N2CCc3[nH]cnc3[C@H]2c2cc3c(F)cccn3n2)o1", "note": "[Example 846, (S)-(5-(1,3-dimethyl-1H-pyrazol-4-yl)-1,3,4-oxadiazol-2-yl)(4-(4-fluoropyrazolo[1,5-a]pyridin-2-yl)-6,7-dihydro-1H-imidazo[4,5-c]pyridin-5(4H)-yl)methanone]", "AC50": "< 0.5"},
      {"compound": "Cc1ccc2c(C(=O)N3CCc4[nH]cnc4[C@@H]3c3cc4c(C(F)(F)F)cccn4n3)cnn2c1", "note": "[Example 1667, (R)-(6-methylpyrazolo[1,5-a]pyridin-3-yl)(4-(4-(trifluoromethyl)pyrazolo[1,5-a]pyridin-2-yl)-6,7-dihydro-1H-imidazo[4,5-c]pyridin-5(4H)-yl)methanone]", "AC50": "> 5"},
      {"compound": "O=C(c1nnc(-c2ncccc2F)o1)N1CCc2[nH]cnc2[C@H]1c1cc2c(C(F)F)cccn2n1", "note": "[Example 1426, (S)-(4-(4-(difluoromethyl)pyrazolo[1,5-a]pyridin-2-yl)-6,7-dihydro-1H-imidazo[4,5-c]pyridin-5(4H)-yl)(5-(3-fluoropyridin-2-yl)-1,3,4-oxadiazol-2-yl)methanone]", "AC50": "< 0.5"},
      {"compound": "CC(C)c1nnc(C(=O)N2CCc3[nH]cnc3[C@@H]2c2cc3c(C(F)(F)F)cccn3n2)o1", "note": "[Example 1487, (R)-(5-isopropyl-1,3,4-oxadiazol-2-yl)(4-(4-(trifluoromethyl)pyrazolo[1,5-a]pyridin-2-yl)-6,7-dihydro-1H-imidazo[4,5-c]pyridin-5(4H)-yl)methanone]", "AC50": "> 5"},
      {"compound": "O=C(c1oc(C2(O)CC2)nc1C(F)F)N1CCc2[nH]cnc2[C@@H]1c1cc2c(F)cccn2n1", "note": "[Example 1235, (R)-(4-(difluoromethyl)-2-(1-hydroxycyclopropyl)oxazol-5-yl)(4-(4-fluoropyrazolo[1,5-a]pyridin-2-yl)-6,7-dihydro-1H-imidazo[4,5-c]pyridin-5(4H)-yl)methanone]", "AC50": "1 to 5"},
      {"compound": "O=C(c1nnc(-c2cccnc2)o1)N1CCc2[nH]cnc2[C@H]1c1cc2c(C(F)(F)F)cccn2n1", "note": "[Example 1302, (S)-(5-(pyridin-3-yl)-1,3,4-oxadiazol-2-yl)(4-(4-(trifluoromethyl)pyrazolo[1,5-a]pyridin-2-yl)-6,7-dihydro-1H-imidazo[4,5-c]pyridin-5(4H)-yl)methanone]", "AC50": "< 0.5"},
      {"compound": "O=C(c1nnc(-c2ncccc2F)o1)N1CCc2[nH]cnc2[C@H]1c1cc2cccc(Cl)n2n1", "note": "[Example 982, (S)-(4-(7-chloropyrazolo[1,5-a]pyridin-2-yl)-6,7-dihydro-1H-imidazo[4,5-c]pyridin-5(4H)-yl)(5-(3-fluoropyridin-2-yl)-1,3,4-oxadiazol-2-yl)methanone]", "AC50": "< 0.5"},
      {"compound": "Cc1nc(C(C)(C)F)oc1C(=O)N1CCc2[nH]cnc2[C@H]1c1cc2c(F)cccn2n1", "note": "[Example 1275, (S)-(2-(2-fluoropropan-2-yl)-4-methyloxazol-5-yl)(4-(4-fluoropyrazolo[1,5-a]pyridin-2-yl)-6,7-dihydro-1H-imidazo[4,5-c]pyridin-5(4H)-yl)methanone]", "AC50": "< 0.5"},
      {"compound": "CC1(c2nnc(C(=O)N3CCc4[nH]cnc4[C@H]3c3cc4cccc(Cl)n4n3)o2)CC1", "note": "[Example 1296, (S)-(4-(7-chloropyrazolo[1,5-a]pyridin-2-yl)-6,7-dihydro-1H-imidazo[4,5-c]pyridin-5(4H)-yl)(5-(1-methylcyclopropyl)-1,3,4-oxadiazol-2-yl)methanone]", "AC50": "< 0.5"},
      {"compound": "O=C(Cc1nc(C(F)(F)F)cs1)N1CCc2[nH]cnc2[C@@H]1c1cc2ccccn2n1", "note": "[Example 609, (R)-1-(4-(pyrazolo[1,5-a]pyridin-2-yl)-6,7-dihydro-1H-imidazo[4,5-c]pyridin-5(4H)-yl)-2-(4-(trifluoromethyl)thiazol-2-yl)ethanone]", "AC50": "> 5"},
      {"compound": "CC(C)c1nnc(C(=O)N2CCc3[nH]cnc3[C@@H]2c2cc3ccccn3n2)o1", "note": "[Example 1449, (R)-(5-isopropyl-1,3,4-oxadiazol-2-yl)(4-(pyrazolo(1,5-a]pyridin-2-yl)-6,7-dihydro-1H-imidazo[4,5-c]pyridin-5(4H)-yl)methanone]", "AC50": "1 to 5"},
      {"compound": "Cn1cnc(-c2nnc(C(=O)N3CCc4[nH]cnc4[C@H]3c3cc4c(F)cccn4n3)o2)c1", "note": "[Example 809, (S)-(4-(4-fluoropyrazolo[1,5-a]pyridin-2-yl)-6,7-dihydro-1H-imidazo[4,5-c]pyridin-5(4H)-yl)(5-(1-methyl-1H-imidazol-4-yl)-1,3,4-oxadiazol-2-yl)methanone]", "AC50": "0.5 to 1"},
      {"compound": "Cn1ncnc1C(=O)N1CCc2[nH]cnc2[C@H]1c1cc2cccc(C(F)(F)F)n2n1", "note": "[Example 1144, (S)-(1-methyl-1H-1,2,4-triazol-5-yl)(4-(7-(trifluoromethyl)pyrazolo[1,5-a]pyridin-2-yl)-6,7-dihydro-1H-imidazo[4,5-c]pyridin-5(4H)-yl)methanone]", "AC50": "0.5 to 1"},
      {"compound": "O=C(c1nnc(C2CC2)o1)N1CCc2[nH]cnc2[C@H]1c1cc2c(C(F)F)cccn2n1", "note": "[Example 980, (S)-(5-cyclopropyl-1,3,4-oxadiazol-2-yl)(4-(4-(difluoromethyl)pyrazolo[1,5-a]pyridin-2-yl)-6,7-dihydro-1H-imidazo[4,5-c]pyridin-5(4H)-yl)methanone]", "AC50": "< 0.5"},
      {"compound": "CC(C)(F)c1nnc(C(=O)N2CCc3[nH]cnc3[C@@H]2c2cc3c(C(F)(F)F)cccn3n2)o1", "note": "[Example 951, (R)-(5-(2-fluoropropan-2-yl)-1,3,4-oxadiazol-2-yl)(4-(4-(trifluoromethyl)pyrazolo[1,5-a]pyridin-2-yl)-6,7-dihydro-1H-imidazo[4,5-c]pyridin-5(4H)-yl)methanone]", "AC50": "1 to 5"}
    ]}
  ]
}
